Source: article PMC6332255, “Evaluation of the Cytotoxicity of α-Cyclodextrin Derivatives on the Caco-2 Cell Line and Human Erythrocytes” (Molecules, 2015)

Experiments:
human erythrocytes = test: Hemolysis test on human red blood cells; format: cell-based; settings: for HC50: PBS pH 7.2, 37 °C, mean ± SD; for HC50 / concentration up to which not hemolytic: 10 min
Experimental: Hemolysis test was performed on fresh human blood. Erythrocytes were separated from citrated blood by centrifugation at 2500× g for 10 min.; washed three times with PBS and resuspended in the same solution. Aliquots of the cell suspension with the respective red blood cell number of 5 × 10^7 were added to the buffer solution (PBS pH 7.2) containing increasing concentrations of the samples investigated in the study. After mixing them gently, each solution was incubated at 37 °C for 10 min and then centrifuged at 5000× g. Finally, the absorbance of the hemoglobin released into the supernatant was measured at 540 nm with a FLUOstar OPTIMA Microplate Reader. The percentage of hemolysis was expressed as the ratio of hemoglobin in the supernatant of the sample solutions related to the hemoglobin concentration after the complete hemolysis of erythrocytes in water. The dose-response curve was determined, and the concentration inducing hemolysis in 50% of the erythrocyte population (HC50) was subsequently calculated.

Caco-2 cells [1] = test: MTT cell viability assay on Caco-2 cells; format: cell-based, human; settings: for IC50: 30 min incubation at 37 °C in PBS, mean ± SD; for concentration up to which no toxic effect (MTT): 30 min
Experimental: (§1) Caco-2 cell line was obtained from the European Collection of Cell Cultures (ECACC). Cells were grown in plastic cell culture flasks in Dulbecco’s Modified Eagle’s Medium supplemented with 3.7 g/L NaHCO3, 10% (v/v) heat-inactivated fetal bovine serum (FBS), 1% (v/v) non-essential amino acids solution, 1% (v/v) L-glutamine, 100 IU/mL penicillin, and 100 µg/mL streptomycin at 37 °C in an atmosphere of 5% CO2. The cells were routinely maintained by regular passaging. For cytotoxic and transport experiments, cells were used between passage numbers 20 and 40. The culture media were replaced with fresh media in every 72 h.
The MTT assay was performed on Caco-2 cells. The cells were seeded in 96 well plates until the cell monolayer become confluent. The medium was changed once. After one week the medium was removed, the cells were washed with PBS and exposed to increasing concentrations of α-CDs dissolved in phosphate buffer saline (PBS). Cells were incubated for 30 min on 37 °C. Control groups were processed equally and incubated without CD simultaneously. After treatment MTT dye (3-(4,5-dimethylthiazol-2-yl))-2,5-diphenyltetrazolium bromide, 5 mg/mL) was applied to each well for 3 h. MTT solution was removed and isopropanol-hydrochloric acid (25:1) was added to dissolve the formed formazan crystals. The absorbance was measured at 570 nm against a 690 nm reference with a FLUOstar OPTIMA Microplate Reader. Cell viability was expressed as the percentage of untreated control.

Caco-2 cells [2] = test: Real-time cell electronic sensing (RT-CES) on Caco-2 cells; format: cell-based, human; settings: for toxicity by RT-CES, result in words: prolonged exposition time (up to 8 h) versus 30 min MTT; for concentration up to which non-toxic (RT-CES): up to 8 h; for IC50: up to 8 h treatment, impedance cell index
Experimental: as §1
Real-time cell electronic sensing (RT-CES) is a label-free technique for dynamic monitoring of living cells. The xCELLigence system (Roche, Basel, Switzerland) utilizes an electronic readout called impedance to non-invasively quantify adherence cell proliferation and viability. E-plates (Roche) contain gold microelectronic sensor arrays. The interaction between cells and the electrode generates impedance response that correlates linearly with cell index reflecting cell number, adherence and cell growth. This method is more sensitive and informative than colorimetric end-point assays to test pharmaceutical excipients.
The E-plate was coated with 0.2% rat tail collagen–DW solution for 20 min at 37 °C. Culture media (60 μL) was added to each well for background readings than 100 µL Caco-2 cell suspension was dispensed at the density of 1.5 × 10^4 cells/well. The cells were grown for 2 days. The medium was changed to excipients solutions and the cells in the E-plate were kept in an incubator at 37 °C for 8 h and monitored every 5 min.
The cell index at each time point was defined as (Rn − Rb)/15, where Rn is the cell-electrode impedance of the well when it contains cells and Rb is the background impedance of the well with the media alone.

[3] = Solubility of the samples in isotonic PBS; format: physicochemical; settings: isotonic phosphate buffered saline (PBS)
Experimental: α-Cyclodextrin derivatives were generously offered by Cyclolab Ltd. (Cyclodextrin Research & Development Laboratory, Budapest, Hungary). […] We investigated each α-CD in 7 different concentrations: 0.01; 0.1; 1; 10; 25; 50 and 100 mM, with the exception of TRIMEA, which was not soluble above 30 mM. The solid samples were dissolved in isotonic phosphate buffered saline (PBS), purchased from Sigma–Aldrich (Budapest, Hungary) (Table 2.)

Compound	HC50 (human erythrocytes)	IC50 (Caco-2 cells [1])	concentration up to which no toxic effect (MTT) (Caco-2 cells [1])	IC50 (Caco-2 cells [2])	further results
randomly methylated α-CD [RAMEA]	15.5 ± 0.01 mM	78.6 ± 15.8 mM	–	–	–
sulfated α-CD	>100 mM	> 100 mM	> 100000 µM	–	toxicity by RT-CES, result in words (Caco-2 cells [2]): toxic when the exposition time was prolonged
(2-hydroxy) propyl α-CD [HPACD]	>100 mM	> 100 mM	> 100000 µM	> 100 mM	concentration up to which not hemolytic (human erythrocytes): > 100000 µM; HC50 (human erythrocytes; listed as Hydroxypropyl): > 100 mM; concentration up to which non-toxic (RT-CES) (Caco-2 cells [2]): > 100000 µM
COC[C@H]1O[C@@H]2O[C@@H]3[C@@H](OC)[C@@H](OC)[C@@H](O[C@@H]4[C@@H](OC)[C@@H](OC)[C@@H](O[C@@H]5[C@@H](OC)[C@@H](OC)[C@@H](O[C@@H]6[C@@H](OC)[C@@H](OC)[C@@H](O[C@@H]7[C@@H](OC)[C@@H](OC)[C@@H](O[C@@H]1[C@@H](OC)[C@H]2OC)O[C@@H]7COC)O[C@@H]6COC)O[C@@H]5COC)O[C@@H]4COC)O[C@@H]3COC [TRIMEA, hexakis-(2,3,6-tri-O-methyl)-α-CD]	1.9 ± 0.01 mM	1.8 ± 0.8 mM	–	> 1 mM	solubility limit [3]: ≤ 30 mM
carboxymethylated α-CD sodium salt [CMACD]	>100 mM	> 100 mM	> 100000 µM	–	HC50 (human erythrocytes; listed as carboxymethylated): > 100 mM; toxicity by RT-CES, result in words (Caco-2 cells [2]): toxic when the exposition time was prolonged
succinylated α-CD [SuACD]	9.6 ± 0.03 mM	19 ± 8.8 mM	–	> 1 mM	–
acetylated α-CD [AcACD]	>100 mM	> 100 mM	> 100000 µM	> 100 mM	concentration up to which not hemolytic (human erythrocytes): > 100000 µM; HC50 (human erythrocytes; listed as acetyl): > 100 mM; concentration up to which non-toxic (RT-CES) (Caco-2 cells [2]): > 100000 µM
phosphated α-CD sodium salt	>100 mM	7.8 ± 8.6 mM	–	–	hemolysis, result in words (human erythrocytes): did not result in hemolysis
OC[C@H]1O[C@@H]2O[C@H]3[C@H](O)[C@@H](O)[C@@H](O[C@H]4[C@H](O)[C@@H](O)[C@@H](O[C@H]5[C@H](O)[C@@H](O)[C@@H](O[C@H]6[C@H](O)[C@@H](O)[C@@H](O[C@H]7[C@H](O)[C@@H](O)[C@@H](O[C@H]1[C@H](O)[C@H]2O)O[C@@H]7CO)O[C@@H]6CO)O[C@@H]5CO)O[C@@H]4CO)O[C@@H]3CO [native, α-cyclodextrin]	16.0 ± 0.02 mM	–	–	–	HC50 (human erythrocytes; listed as Native α-CD): 16 mM; IC50 (Caco-2 cells [1]; Homo sapiens, 0.5 h): 46.1 ± 9.2 mM; IC50 (Caco-2 cells [2]; Homo sapiens): > 25 mM
